In patent US20050202070A1, “Iodine/iodide-containing hot melt coatable adhesive, methods and uses therefor” (priority 2002, published 2005):
Read-outs that look alike come from different tables or passages of the source.

Key:
[1] = Solubility of PVPI, I2/NaI and I2 in plasticizer compounds
[2] = cited from earlier work

Row | SMILES | Solubility of 2% I2/2.4% NaI in the plasticizer [1] | Solubility of 18% I2 in the plasticizer [1] | Vapor pressure ([2]; at 25C) | Vapor pressure ([2]; at 90C) | Vapor pressure ([2]; at 184.4C (boils))
1 | CCCCNS(=O)(=O)c1ccccc1 [Plasthall BSA, N-n-butylbenzenesulfonamide] | Soluble | Soluble |  |  | 
2 | CCCCC(CC)C(=O)OCCOCCOCCOCCOC(=O)C(CC)CCCC (stereo not shown) [TerMerR 804, tetraethyleneglycol di-2ethylhexanoate] | Soluble | Soluble |  |  | 
3 | II [iodine] |  |  | 0.30 mmHG | 26.7 mmHg | 760 mmHg
